Assay results taken from patent US20260033491A1, “FUNGAL SPORE FORMULATIONS INCLUDING CARRIER FLUIDS” (priority 2018, published 2026).
Read-outs that look alike come from different tables or passages of the source. Marks after values point to notes of the source that are not given here.

How the values were obtained:
Assay type in all cases: cell-based
[1] = system: Beauveria bassiana spores; experiment: Spore viability (germination rate) of Beauveria bassiana spores dispersed in fluid and stored at 30° C.
Method: (§1) 1.5 g of Beauveria bassiana pure spore powder were transferred into a formulation vessel (IKA Type DT-20 mixing vessel with dispersion tool for Ultra Turrax) using a sterile spoon. 13.5 mL of fluid were added into the respective formulation vessel and dispersed using ultra turrax tube drive control for 1 min at 3000 rpm; change direction after 30 sec. After this 2.8 mL were transferred in four sample bottles (Wheaton Serum vial, Type I) leaving little headspace and closed tight using crimpneck caps (Macherey—Nagel type N 13) Afterwards all sample bottles were transferred to an incubator set at 30° C. and stored for a given time.
(§2) In regular intervals a sample was retrieved from the storage location and analyzed for spore viability. Therefore the original samples were thoroughly homogenized. Aliquots of 0.25 g or 250 μL of each sample are transferred into 50 mL falcon tubes. The tubes were filled up to 25 g using a sterile aqueous solution containing 2% Tween 80 and homogenized by vortexing to achieve the first dilution step (1:100 dilution). This dilution was used for further dilution and spotting on agar.
(§3) For these samples, an alternative dispersion/dilution method was applied where the oil phase is stripped from the spores first: 0.25 g or 250 μL of sample are weighted into a 2 mL Eppendorf tube, and 0.5 mL of 2% Tween 80 is added, and the mixture is transferred into an Eppendorf centrifuge where it is centrifuged for 1 min at 10.000 rpm. The supernatant (=upper oily phase) is discarded by using a pipette. […] 250 μL or 0.25 g of each sample are transferred into a sterile 50 mL Falcon tube. The tubes were filled up to 25 g using a sterile aqueous solution containing 2% Tween 80 and homogenized by vortexing to achieve the first dilution step (1:100 dilution). This dilution is used for further dilution and spotting on agar.
(§4) For evaluation of spore germination rate prepare a 1:15000 dilution based on the 1:100 dilution achieved by multiple automated dilution (pipetting robot, 96 well plate). Afterwards 12×12 cm agar plates are taken and spotted with 10 times 5 μL of each sample using an automated 12-Channel pipet. Wait until liquid is soaked up by agar and transfer agar plate to an incubator and incubate at 20° C. for 17 hours. Open the plate and place it under the microscope. Randomly chose one area per spot and record the number of germinated and non-germinated spores that are within the designated field. At least 200 spores per sample need to be evaluated. If needed count more than one field per spot.

[2] = system: Purpureocillium lilacinum spores; experiment: Spore viability (germination rate) of Purpureocillium lilacinum spores dispersed in fluid and stored at 30° C.
Method: as §1, with “3” for “1.5”, “Purpureocillium lilacinum” for “Beauveria bassiana”, “12” for “13.5”, “13).” for “13)”
as §2, with “For this purpose,” for “Therefore”, “were” for “are”
as §3, with “oil phase was stripped from” for “oil phase is stripped from”, “each sample were transferred into” for “each sample are transferred into”, “This dilution was used for” for “This dilution is used for”
as §4, with “a 1:30000” for “a 1:15000”, “plates were” for “plates are”, “at 25°” for “at 20°”

[3] = system: Penicillium bilaii spores; experiment: Spore viability (germination rate) of Penicillium bilaii spores dispersed in fluid and stored at 30° C.
Method: as §1, with “Penicillium bilaii” for “Beauveria bassiana”
as §2
Not all samples mixed well or mixed at all in 2% Tween 80. For these samples, an alternative dispersion/dilution method was applied where the oil phase is stripped from the spores first: 0.25 g or 250 μL of sample are weighted into a 2 mL Eppendorf tube, and 0.5 mL of 2% Tween 80 is added, and the mixture is transferred into an Eppendorf centrifuge where it is centrifuged for 1 min at 10.000 rpm. The supernatant (=upper oily phase) is discarded by using a pipette. Afterwards 250 μL of Breakthru S 240 are added and the spores are well dispersed. 250 μL or 0.25 g of each sample are transferred into a sterile 50 mL Falcon tube. The tubes were filled up to 25 g using a sterile aqueous solution containing 2% Tween 80 and homogenized by vortexing to achieve the first dilution step (1:100 dilution). This dilution is used for further dilution and spotting on agar.
as §4

[4] = P. lilacinum spores in fluid, storage at 30° C., 12-15 d
[5] = P. lilacinum spores in fluid, storage at 30° C., 27-28 d
[6] = P. lilacinum spores in fluid, storage at 30° C., 51-55 d
[7] = P. lilacinum spores in fluid, day 1
[8] = P. lilacinum spores in fluid, storage at 30° C., 35-40 d
[9] = P. lilacinum spores in fluid, storage at 30° C., 87-92 d
[10] = Penicillium bilaii spores in fluid, 1-2 d
[11] = Penicillium bilaii spores in fluid, storage at 30° C., 41-43 d
[12] = Penicillium bilaii spores in fluid, storage at 30° C., 83-85 d
[13] = Beauveria bassiana spores in fluid, day 1
[14] = Beauveria bassiana spores in fluid, storage at 30° C., 14 d
[15] = Beauveria bassiana spores in fluid, storage at 30° C., 35 d
[16] = P. lilacinum spores in fluid, storage at 30° C., 7 m

Compound: Sorbitan trioleate [Radiasurf 7355]
- spore viability [%] after 2 w (14 d) [1]: 71.3%
- spore viability [%] after 5 w (35 d) [1]: 60.4%
- spore viability [%] after 3 m (87-92 d) [2]: 64.1%
- spore viability [%] after 5-6 w (35-40 d) [2]: 96.4%
- spore viability [%] at day 1 [2]: 98.3%

Compound: CCCCCC[C@@H](O)C/C=C\CCCCCCCC(=O)OC [Radia 7081, Ricinolic acid methylester]
- spore viability [%] after 1 m (27-28 d) [2]: 95.8%
- spore viability [%] after 2 m (51-55 d) [2]: 88.6%
- spore viability [%] after 2 w (12-15 d) [2]: 94.7%

Compound: Neopentylglycol dicocoate [Radialube 7302]
- spore viability [%] after 5 w (35 d) [1]: 52.7%

Compound: Fatty acid monoglyceride diacetate [Radia 7909]
- spore viability [%] 3 m@30° C. (83-85 d) [3]: 42.0%
- spore viability [%] 6 w@30° C. (41-43 d) [3]: 75.6%
- spore viability [%] initial (1-2 d) [3]: 90.6%
- spore viability [%] after 2 w (14 d) [1]: 11.5%
- spore viability [%] after 5 w (35 d) [1]: 18.1%
- spore viability [%] at day 1 [1]: 75.1%
- spore viability [%] after 3 m (87-92 d) [2]: 78.5%
- spore viability [%] after 5-6 w (35-40 d) [2]: 96.5%
- spore viability [%] at day 1 [2]: 98.1%

Compound: CCCCCCCC/C=C\CCCCCCCC(=O)OCC(CC)CCCC (stereo not drawn) [Radialube 7130, 2-Ethylhexyl oleate]
- spore viability [%] after 2 w (12-15 d) [2, 4]: 98.5%
- spore viability [%] after 1 m (27-28 d) [2, 5]: 94.3%
- spore viability [%] after 2 m (51-55 d) [2, 6]: 87.9%

Compound: CCCCCOC(=O)CC [Pentyl Propionate, Propionic acid Pentyl ester]
- spore viability [%] at day 1 [2, 7]: 99.1%
- spore viability [%] after 5-6 w (35-40 d) [2, 8]: 94.6%
- spore viability [%] after 3 m (87-92 d) [2, 9]: 16.1%

Compound: Trimethylolpropane Triisostearate [Radia 7380]
- spore viability [%] after 2 w (12-15 d) [2, 4]: 96.5%
- spore viability [%] after 1 m (27-28 d) [2, 5]: 89.3%
- spore viability [%] after 2 m (51-55 d) [2, 6]: 86.0%

Compound: CCCCCCCC/C=C\CCCCCCCC(=O)OCC(CC)CCCC (stereo not drawn) [Radia 7331, 2-Ethylhexyl oleate]
- spore viability [%] initial (1-2 d) [3, 10]: 97.1%
- spore viability [%] 6 w@30° C. (41-43 d) [3, 11]: 91.4%
- spore viability [%] 3 m@30° C. (83-85 d) [3, 12]: 75.7%
- spore viability [%] at day 1 [1, 13]: 91.5%
- spore viability [%] after 2 w (14 d) [1, 14]: 81.4%
- spore viability [%] after 5 w (35 d) [1, 15]: 66.3%
- spore viability [%] after 2 w (12-15 d) [2, 4]: 97.9%
- spore viability [%] after 1 m (27-28 d) [2, 5]: 95.9%
- spore viability [%] after 2 m (51-55 d) [2, 6]: 85.9%

Compound: Trimethylolpropane Trioleate [Radialube 7361]
- spore viability [%] after 2 w (12-15 d) [2, 4]: 97.2%
- spore viability [%] after 1 m (27-28 d) [2, 5]: 92.3%
- spore viability [%] after 2 m (51-55 d) [2, 6]: 85.4%

Compound: CC(C)CCCCCCOC(=O)C1CCCCC1C(=O)OCCCCCCC(C)C (stereo not drawn) [Agnique AE829, 1,2-Cyclohexane dicarboxylic acid diisononyl ester]
- spore viability [%] initial (1-2 d) [3, 10]: 95.3%
- spore viability [%] 6 w@30° C. (41-43 d) [3, 11]: 89.4%
- spore viability [%] 3 m@30° C. (83-85 d) [3, 12]: 71.9%
- spore viability [%] at day 1 [1, 13]: 89.7%
- spore viability [%] after 2 w (14 d) [1, 14]: 74.9%
- spore viability [%] after 5 w (35 d) [1, 15]: 57.8%
- spore viability [%] after 2 w (12-15 d) [2, 4]: 97.3%
- spore viability [%] after 1 m (27-28 d) [2, 5]: 96.5%
- spore viability [%] after 2 m (51-55 d) [2, 6]: 89.8%

Compound: CCCCCCCCCCCC(=O)OCC(CC)CCCC (stereo not drawn) [Radia 7127, 2-Ethylhexyl laurate]
- spore viability [%] initial (1-2 d) [3, 10]: 97.1%
- spore viability [%] 6 w@30° C. (41-43 d) [3, 11]: 96%
- spore viability [%] 3 m@30° C. (83-85 d) [3, 12]: 77.9%
- spore viability [%] at day 1 [1, 13]: 91.3%
- spore viability [%] after 2 w (14 d) [1, 14]: 76.3%
- spore viability [%] after 5 w (35 d) [1, 15]: 68.4%
- spore viability [%] at day 1 [2, 7]: 99.1%
- spore viability [%] taken after 7 m of storage [2, 16]: 40.6* %
- spore viability [%] after 2 w (12-15 d) [2, 4]: 99.0%
- spore viability [%] after 1 m (27-28 d) [2, 5]: 98.3%
- spore viability [%] after 2 m (51-55 d) [2, 6]: 88.4%

Compound: CC(C)OC(=O)CCCCC(=O)OC(C)C [Crodamol DA, Diisopropyl adipate]
- spore viability [%] at day 1 [2, 7]: 98.2%
- spore viability [%] taken after 7 m of storage [2, 16]: 51.3* %
- spore viability [%] after 2 w (12-15 d) [2, 4]: 94.3%
- spore viability [%] after 1 m (27-28 d) [2, 5]: 95.0%
- spore viability [%] after 2 m (51-55 d) [2, 6]: 68.2%

Compound: Trimethylolpropane Tricocoate [Radialube 7359]
- spore viability [%] after 1 m (27-28 d) [2]: 87.8%
- spore viability [%] after 2 m (51-55 d) [2]: 87.5%
- spore viability [%] after 2 w (12-15 d) [2]: 60.6^# %
- spore viability [%] at day 1 [2]: 58.0^# %
- spore viability [%] taken after 7 m of storage [2]: 87.3* %

Compound: CCCCOC(=O)CC(CC(=O)OCCCC)(OC(C)=O)C(=O)OCCCC [Acetyltributylcitrat, O-Acetyl citric acid tributyl ester]
- spore viability [%] initial (1-2 d) [3, 10]: 98.4%
- spore viability [%] 6 w@30° C. (41-43 d) [3, 11]: 83.8%
- spore viability [%] 3 m@30° C. (83-85 d) [3, 12]: 60.6%
- spore viability [%] at day 1 [1, 13]: 85.5%
- spore viability [%] after 2 w (14 d) [1, 14]: 76.7%
- spore viability [%] after 5 w (35 d) [1, 15]: 58.8%
- spore viability [%] at day 1 [2, 7]: 98.9%
- spore viability [%] after 5-6 w (35-40 d) [2, 8]: 98.0%
- spore viability [%] after 3 m (87-92 d) [2, 9]: 87.5%
